In patent US20200017496A1 (priority 2017, published 2020):
Where “and” joins values, the source holds several entries; their conditions need not be identical. Equal values may be shown once. Read-outs that look alike come from different tables or passages of the source.

How the values were obtained:
[1] = tested on: Klebsiella pneumoniae (KPN) isolates; assay: MIC of compounds alone and combined with antibacterials, broth microdilution (CLSI); assay type: cell-based; conditions: for MIC ATB in combination: AF1 @ 4 μg/mL
Procedure, shortened: (§1)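 First, log-phase suspensions are brought to a final 5·10^5 CFU/mL in cation-adjusted Mueller-Hinton broth. Then plates with compound, antibacterial, or both incubate 16-20 h at 35° C under ambient air. Finally, visual inspection gives the lowest growth-preventing concentration for each agent.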

[2] = tested on: Citrobacter freundii (CFR) isolates; assay: as above; assay type: cell-based
Procedure, shortened: as §1

SMILES: CC1(C)S[C@@H]2[C@H](NC(=O)[C@H](N)c3ccc(O)cc3)C(=O)N2[C@H]1C(=O)O [AMX, Amoxicillin]
- MIC [1]: >128 µg/mL and 128 µg/mL
- MIC ATB in combination ([1]; KPN 6299): 256 µg/mL
- MIC ATB in combination ([1]; KPN 131119): 256 µg/mL
- MIC ATB in combination ([1]; KPN 140513): >512 µg/mL
- MIC ATB in combination ([1]; KPN 190270): 16 µg/mL
- MIC ATB in combination ([1]; KPN 190551): 64 µg/mL
- MIC ATB in combination ([1]; KPN 200047): 16 µg/mL
- MIC ATB in combination ([1]; KPN 200327): 32 µg/mL
- MIC ATB in combination ([1]; KPN 260252): 256 µg/mL
- MIC ATB in combination ([1]; KPN 260376): 32 µg/mL
- MIC ATB in combination ([1]; KPN 270077): 4 µg/mL
- MIC ATB in combination ([1]; KPN 700603): 4 µg/mL
- MIC ATB in combination ([1]; KPN ARA): 256 µg/mL
- MIC ATB in combination ([1]; KPN BAA-1898): 256 µg/mL
- MIC ATB in combination ([1]; KPN LIB): 16 µg/mL
- MIC ATB in combination ([1]; KPN UFR22_O): 64 µg/mL
- MIC ATB in combination ([1]; KPN UFR23): 32 µg/mL
- MIC ATB in combination ([1]; KPN UFR24): 64 µg/mL
- MIC ATB in combination ([1]; KPN UFR25): 512 µg/mL
- MIC ATB in combination ([1]; KPN UFR65): 256 µg/mL
- MIC ATB in combination ([1]; KPN UFR66): 256 µg/mL
- MIC ATB in combination ([1]; KPN UFR67): 256 µg/mL
- MIC ATB in combination ([1]; KPN UFR68): 256 µg/mL
- MIC ATB in combination ([1]; KPN UFR76): >512 µg/mL
- MIC ATB in combination ([1]; KPN UFR77): 64 µg/mL
- MIC ATB in combination ([1]; KPN UFR78): >512 µg/mL
- MIC ATB in combination ([1]; KPN UFR79): >512 µg/mL
- MIC ATB in combination ([1]; KPN UFR81): >512 µg/mL
- MIC ATB in combination ([1]; KPN UFR215): 64 µg/mL
- MIC ATB in combination ([1]; KPN UFR216): 32 µg/mL
- MIC ATB in combination ([1]; KPN UFR217): 64 µg/mL
- MIC ATB in combination ([1]; KPN UFR220): 512 µg/mL
- MIC ATB in combination ([1]; KPN UFR221): 256 µg/mL
- MIC ATB in combination ([1]; KPN UFR222): >512 µg/mL
- MIC ATB in combination ([1]; KPN UFR227O): 512 µg/mL
- MIC ([1]; Klebsiella pneumoniae): > 256 µg/mL
- MIC ([1]; Klebsiella pneumoniae, BAA1898, strain KPN BAA-1898 (TEM-1, SHV-11, SHV-12, KPC-2), ATB alone, read-out: MIC): > 1020 µg/mL
- MIC ([1]; Klebsiella pneumoniae, BAA1898, strain KPN BAA-1898 (TEM-1, SHV-11, SHV-12, KPC-2), CLA @ 4 μg/ml+ ATB, read-out: MIC): > 512 µg/mL
- MIC ([1]; Klebsiella pneumoniae, strain KPN 6299 (TEM-1, SHV-11, OXA-163), ATB alone, read-out: MIC): > 1020 µg/mL
- MIC ([1]; Klebsiella pneumoniae, strain KPN 6299 (TEM-1, SHV-11, OXA-163), CLA @ 4 μg/ml+ ATB, read-out: MIC): > 512 µg/mL
- MIC ([1]; Klebsiella pneumoniae, strain KPN 131119 (TEM-1, SHV-11, CTX-M-15, OXA-1, OXA-48), CLA @ 4 μg/ml+ ATB, read-out: MIC): > 512 µg/mL
- MIC ([1]; Klebsiella pneumoniae, strain KPN 200047 (TEM-1, SHV-32, CTX-M-15, OXA-1), CLA @ 4 μg/ml+ ATB, read-out: MIC): 32 µg/mL
- MIC ([1]; Klebsiella pneumoniae, strain KPN 200327 (TEM-1, SHV-1, CTX-M-15, OXA-1), CLA @ 4 μg/ml+ ATB, read-out: MIC): 32 µg/mL
- MIC ([1]; Klebsiella pneumoniae, strain KPN 270077 (TEM-1, SHV-1, CTX-M-15), CLA @ 4 μg/ml+ ATB, read-out: MIC): 32 µg/mL
- MIC ([1]; Klebsiella pneumoniae, strain KPN 700603 (SHV-18, OXA-2), CLA @ 4 μg/ml+ ATB, read-out: MIC): 8 µg/mL
- MIC ([1]; Klebsiella pneumoniae, strain KPN LIB (SHV-11, OXA-48), CLA @ 4 μg/ml+ ATB, read-out: MIC): > 512 µg/mL
- MIC ([1]; Klebsiella pneumoniae, strain KPN UFR68 (TEM-1, SHV-11, CTX-M-15, KPC-3), ATB alone, read-out: MIC): > 1020 µg/mL
- MIC [2]: 128 µg/mL and >256 µg/mL
- MIC ATB in combination [2]: 128 µg/mL
- MIC ATB in combination ([2]; CFR UFR11, AF1 @ 4 μg/mL): >512 µg/mL
- MIC ATB in combination ([2]; CFR UFR83, AF1 @ 4 μg/mL): >512 µg/mL
- MIC ATB in combination ([2]; CFR UFR146, AF1 @ 4 μg/mL): 256 µg/mL
- MIC ATB in combination ([2]; CFR UFR248, AF1 @ 4 μg/mL): 64 µg/mL
- MIC ATB in combination ([2]; CFR UFR249, AF1 @ 4 μg/mL): 256 µg/mL
- MIC ATB in combination ([2]; CFR UFR250, AF1 @ 4 μg/mL): 32 µg/mL
- MIC ([2]; Citrobacter freundii): > 128 µg/mL
- MIC ATB in combination ([2]; strain CFR UFR253, antibacterial combined with AF1 @ 4 μg/mL): 4 µg/mL
- MIC ATB in combination ([2]; strain CFR UFR254, antibacterial combined with AF1 @ 4 μg/mL): 4 µg/mL
